# Assay results reported in patent US6737383B1, “Herbicidal oxadiazolidines” (priority 1999, dated 2004).
# Columns and labels:
# soybean = assay: Test B pre/postemergence soybean; type: in vivo, Glycine max
# Procedure, shortened: (§1)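 Herbicidal effect was estimated by eye on a ten-point control scale after plants spent twelve to sixteen days in a greenhouse following soil or foliar treatment. Foliar sprays targeted plants at one to four leaves; all doses were formulated in a non-phytotoxic solvent with surfactant.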
# sugar beet = assay: Test B pre/postemergence sugar beet; type: in vivo, Beta vulgaris
# Procedure, shortened: as §1
# rape = assay: Test B pre/postemergence rape; type: in vivo, Brassica napus
# Procedure, shortened: as §1
# corn = assay: Test B pre/postemergence corn; type: in vivo, Zea mays
# Procedure, shortened: as §1
# morningglory = assay: Test B pre/postemergence morningglory; type: in vivo, Ipomoea hederacea
# Procedure, shortened: as §1
# giant foxtail = assay: Test B pre/postemergence giant foxtail; type: in vivo, Setaria faberii
# Procedure, shortened: as §1
# surinam grass = assay: Test B pre/postemergence surinam grass; type: in vivo, Brachiaria decumbens
# Procedure, shortened: as §1
# purple nutsedge = assay: Test B pre/postemergence purple nutsedge; type: in vivo, Cyperus rotundus
# Procedure, shortened: as §1
# crabgrass = assay: Test B pre/postemergence crabgrass; type: in vivo, Digitaria sanguinalis
# Procedure, shortened: as §1
# cocklebur = assay: Test B pre/postemergence cocklebur; type: in vivo, Xanthium strumarium
# Procedure, shortened: as §1
# bedstraw = assay: Test B pre/postemergence bedstraw; type: in vivo, Galium aparine; conditions: for Bedstraw plant response rating: scale 0 to 10, 0 is no effect, 10 is complete control
# Procedure, shortened: as §1
# velvetleaf = assay: Test B pre/postemergence velvetleaf; type: in vivo, Abutilon theophrasti
# Procedure, shortened: as §1
# blackgrass = assay: Test B pre/postemergence blackgrass; type: in vivo, Alopecurus myosuroides
# Procedure, shortened: as §1
# wheat = assay: Test B pre/postemergence wheat; type: in vivo, Triticum aestivum
# Procedure, shortened: as §1
# pigweed = assay: Test B pre/postemergence pigweed; type: in vivo, Amaranthus retroflexus
# Procedure, shortened: as §1
# wild oat = assay: Test B pre/postemergence wild oat; type: in vivo, Avena fatua
# Procedure, shortened: as §1
# [1] = Postemergence, Rate 62 g/ha, scale of 0 to 10, 0 is no effect, 10 is complete control
# [2] = Postemergence, Rate 125 g/ha, scale 0 to 10, 0 is no effect, 10 is complete control
# [3] = Postemergence, Rate 500 g/ha, scale 0 to 10, 0 is no effect, 10 is complete control
# [4] = Preemergence, Rate 62 g/ha, scale of 0 to 10 where 0 is no effect and 10 is complete control
# [5] = Preemergence, Rate 125 g/ha, scale 0 to 10, 0 is no effect, 10 is complete control
# [6] = Preemergence, Rate 500 g/ha, scale of 0 to 10 where 0 is no effect and 10 is complete control
# [7] = Postemergence, Rate 250 g/ha, scale 0 to 10
# [8] = Preemergence, Rate 250 g/ha, scale 0 to 10, 0 is no effect, 10 is complete control
smiles,measurement,setting,value
CC(C)N(C(=O)n1oc(=O)n(C(C)C(=O)c2ccccc2)c1=O)c1ccc(F)cc1F (stereo not drawn) [Compound 511],Soybean plant response rating,soybean; [1],1
same,Soybean plant response rating,soybean; [2],4
same,"Plant response rating, Soybean",soybean; [3],4
same,"Plant response rating, Soybean",soybean; [4],0
same,Soybean plant response rating,soybean; [5],0
same,Soybean plant response rating,soybean; [6],0
same,Sugarbeets plant response rating,sugar beet; [1],0
same,Sugarbeets plant response rating,sugar beet; [2],0
same,"Plant response rating, Sugarbeets",sugar beet; [3],2
same,"Plant response rating, Sugarbeets",sugar beet; [4],0
same,Sugarbeets plant response rating,sugar beet; [5],0
same,Sugarbeets plant response rating,sugar beet; [6],0
same,Rape plant response rating,rape; [1],0
same,Rape plant response rating,rape; [2],1
same,"Plant response rating, Rape",rape; [3],4
same,"Plant response rating, Rape",rape; [4],0
same,Rape plant response rating,rape; [5],0
same,Rape plant response rating,rape; [6],0
same,Corn plant response rating,corn; [1],0
same,Corn plant response rating,corn; [2],0
same,Corn plant response rating,corn; [7],0
same,"Plant response rating, Corn",corn; [3],0
same,"Plant response rating, Corn",corn; [4],0
same,Corn plant response rating,corn; [5],0
same,Corn plant response rating,corn; [6],0
same,Morningglory plant response rating,morningglory; [1],4
same,Morningglory plant response rating,morningglory; [2],4
same,"Plant response rating, Morningglory",morningglory; [3],5
same,"Plant response rating, Morningglory",morningglory; [4],0
same,Morningglory plant response rating,morningglory; [5],0
same,Morningglory plant response rating,morningglory; [6],0
same,Giant foxtail plant response rating,giant foxtail; [1],3
same,Giant foxtail plant response rating,giant foxtail; [2],3
same,"Plant response rating, Giant foxtail",giant foxtail; [3],9
same,"Plant response rating, Giant foxtail",giant foxtail; [4],5
same,Giant foxtail plant response rating,giant foxtail; [6],10
same,B. signalgrass plant response rating,surinam grass; [1],0
same,B. signalgrass plant response rating,surinam grass; [2],0
same,B. signalgrass plant response rating,"surinam grass; Postemergence, Rate 250 g/ha, scale 0 to 10, 0 no effect, 10 complete control",0
same,"Plant response rating, B. signalgrass",surinam grass; [3],3
same,"Plant response rating, B. signalgrass",surinam grass; [4],0
same,B. signalgrass plant response rating,surinam grass; [5],0
same,B. signalgrass plant response rating,surinam grass; [8],0
same,B. signalgrass plant response rating,"surinam grass; Preemergence, Rate 500 g/ha, scale 0 to 10, 0 is no effect, 10 is complete control",0
same,Nutsedge plant response rating,purple nutsedge; [1],0
same,Nutsedge plant response rating,purple nutsedge; [2],0
same,"Plant response rating, Nutsedge",purple nutsedge; [3],0
same,"Plant response rating, Nutsedge",purple nutsedge; [4],0
same,Nutsedge plant response rating,purple nutsedge; [5],0
same,Nutsedge plant response rating,purple nutsedge; [6],0
same,Crabgrass plant response rating,crabgrass; [1],3
same,Crabgrass plant response rating,crabgrass; [2],3
same,Crabgrass plant response rating,crabgrass; [7],7
same,"Plant response rating, Crabgrass",crabgrass; [3],9
same,"Plant response rating, Crabgrass",crabgrass; [4],5
same,Crabgrass plant response rating,crabgrass; [5],6
same,Crabgrass plant response rating,crabgrass; [6],10
same,Cocklebur plant response rating,cocklebur; [1],0
same,Cocklebur plant response rating,cocklebur; [2],0
same,Cocklebur plant response rating,cocklebur; [7],0
same,"Plant response rating, Cocklebur",cocklebur; [3],0
same,"Plant response rating, Cocklebur",cocklebur; [4],0
same,Cocklebur plant response rating,cocklebur; [5],0
same,Cocklebur plant response rating,cocklebur; [8],0
same,Cocklebur plant response rating,cocklebur; [6],0
same,Bedstraw plant response rating,"bedstraw; Postemergence, Rate 125 g/ha",8
same,"Plant response rating, Bedstraw",bedstraw; [4],0
same,Bedstraw plant response rating,"bedstraw; Preemergence, Rate 125 g/ha",0
same,Bedstraw plant response rating,"bedstraw; Preemergence, Rate 250 g/ha",0
same,Bedstraw plant response rating,"bedstraw; Preemergence, Rate 500 g/ha",0
same,Velvetleaf plant response rating,velvetleaf; [1],0
same,Velvetleaf plant response rating,velvetleaf; [2],1
same,"Plant response rating, Velvetleaf",velvetleaf; [3],2
same,"Plant response rating, Velvetleaf",velvetleaf; [4],0
same,Velvetleaf plant response rating,velvetleaf; [5],0
same,Velvetleaf plant response rating,velvetleaf; [6],0
same,Blackgrass plant response rating,blackgrass; [1],0
same,Blackgrass plant response rating,blackgrass; [2],0
same,Blackgrass plant response rating,blackgrass; [7],0
same,"Plant response rating, Blackgrass",blackgrass; [3],2
same,"Plant response rating, Blackgrass",blackgrass; [4],0
same,Blackgrass plant response rating,blackgrass; [5],0
same,Blackgrass plant response rating,blackgrass; [8],0
same,Blackgrass plant response rating,blackgrass; [6],0
same,Wheat plant response rating,wheat; [1],0
same,Wheat plant response rating,wheat; [2],0
same,"Plant response rating, Wheat",wheat; [3],0
same,"Plant response rating, Wheat",wheat; [4],0
same,Wheat plant response rating,wheat; [5],0
same,Wheat plant response rating,wheat; [6],0
same,Redroot pigweed plant response rating,pigweed; [1],5
same,Redroot pigweed plant response rating,pigweed; [2],6
same,"Plant response rating, Redroot pigweed",pigweed; [3],7
same,"Plant response rating, Redroot pigweed",pigweed; [4],4
same,Redroot pigweed plant response rating,pigweed; [5],6
same,Redroot pigweed plant response rating,pigweed; [6],8
same,Wild oats plant response rating,wild oat; [1],0
same,Wild oats plant response rating,wild oat; [2],0
same,"Plant response rating, Wild oats",wild oat; [3],0
same,"Plant response rating, Wild oats",wild oat; [4],0
same,Wild oats plant response rating,wild oat; [5],0
same,Wild oats plant response rating,wild oat; [6],2
